We go through four molecules from US20080182894A1, “METHOD OF PROVIDING PREPARATION FOR TOPICAL APPLICATION AND SUPPLEMENT MEETING CLIENT'S NEEDS” (AJINOMOTO CO., INC., priority 2005, published 2008).

Data set [1] concerns hairless mouse. The data set is described as follows: Inhibition of UVB-induced pigmentation: oral tocopherol acetate plus transdermal dihydrocapsiate. It is filed as in vivo. Here is the method:
The synergistic effect of tocopherol acetate and dihydrocapsiate was confirmed using a pigmentation induction mouse based on the inhibition of pigmentation induced by ultraviolet beam (UVB).
(1) Before the start of ultraviolet beam (UVB) irradiation, tocopherol acetate (200 μl) as administered orally once a day for 3 days to a hairless mouse (12-week-old, female) using a gavage needle.
(2) After the 3-day oral administration in (1), the hairless mouse was irradiated with UVB (80-90 mJ/cm^2).
(3) Thirty minutes after the irradiation in (2), tocopherol acetate (200 μl) was administered orally to the hairless mouse using a gavage needle. Five minutes after the oral administration, 28 μl of 5 wt % dihydrocapsiate dissolved in 50 wt % ethyl alcohol was applied to the hairless mouse on the left side of the back.
Treatments (2) and (3) were performed 3 times a week (Monday, Wednesday and Friday) and treatment (3) alone was performed twice a week (Tuesday and Thursday). The skin on the back of the mouse after about 3 weeks from the start of the UV irradiation was visually evaluated.

The subject of data set [2] is hairless mouse. The data set is described as follows: Inhibition of UVB-induced pigmentation: oral cystine plus transdermal dihydrocapsiate. It is filed as in vivo. The conditions noted are these: 5% dihydrocapsiate (50% aqueous ethanol) applied plus oral cystine 50 mg in 150 μl 0.5% CMC; about 3 and about 4 weeks; vs 50% aqueous ethanol application group. Here is the method:
An experiment similar to that in Example 2 was performed using cystine as an oral agent. In particular, 50 mg of cystine was dissolved in 150 μl of a 0.5% aqueous CMC (carboxymethylcellulose) solution and used as an oral administration sample, and 5% dihydrocapsiate (50% aqueous ethanol solution) was used as a dermal application sample. Ultraviolet beam (UVB) was utilized as an irradiation source without preliminary administration, and the synergistic effect afforded by the oral administration agent and the blood circulation promoter on the blackness suppressive effect on the pigmentation of the back of a mouse was confirmed according to the experiment schedule similar to that in Example 2.
Suppression of pigmentation induction in the dihydrocapsiate application group was visually evaluated.
Visual evaluation criteria • 0: No pigmentation • 1: Spots of pale pigmentation found in a part • 2: Spots of pale pigmentation found on the entire back • 3: Spots of pigmentation found on the entire back (partly deep pigmentation was found) • 4: Spots of deep pigmentation found on the entire back • 5: Deep pigmentation found on the entire back

Data set [3] deals with hairless mouse (HR-1, female). Nature of the data set: Vasodilating (blood circulation improving) effect, red spot on auricles, visual evaluation. The format is in vivo. The conditions noted are these: for blood circulation promoting action, intensity and sustainability (conclusion): auricle red spot test, 1 wt % and 5 wt %. The source says: The vasodilating effects (blood circulation improving effect) of capsiate and capsaicin were compared using auricles of a hairless mouse. A sample was applied to the right ear of a hairless mouse (HR-1, female) and a control was applied to the left ear thereof, and the development of a red spot was visually evaluated. (1) Capsiate (1 wt % or 5 wt % dissolved in liquid paraffin) (2) Capsaicin (1 wt % or 5 wt % dispersed in liquid paraffin Liquid paraffin

The nature of data set [4]: Dissolution of sample in liquid paraffin. It is filed as physicochemical. The conditions noted are these: 1 wt % and 5 wt %; evaluated in a dispersion state.
Data set [5] has as its system hairless mouse (HR-1, female). The data set is described as follows: Increase in topical concentration of systemically administered trypan blue dye by topical capsiate. It is filed as in vivo. Here is the method: A hairless mouse (HR-1, female) was intraperitoneally injected with a trypan blue solution (0.4%, 300 μl). After injection, 100 μl of 5% capsiate (dissolved in an ethanol solution) was applied uniformly using a pipet chip to the right side of the back. As a control, 100 μl of ethanol alone was uniformly applied to the left side of the back by a similar method.

Where [6] appears, read: 1 wt % in liquid paraffin, right ear, control liquid paraffin on left ear.
Setting [7] is: 5 wt % in liquid paraffin, from 30 min onward after application.

“Also recorded” adds a separate entry of the source.

For `COc1cc(COC(=O)CCCCCCC(C)C)ccc1O` [dihydrocapsiate], the “UVB-induced pigmentation of back skin, visual evaluation, combined use” value in the data set on hairless mouse [1] (28 μl of 5 wt % dihydrocapsiate on left side of back plus oral tocopherol acetate 200 μl, UVB 80-90 mJ/cm^2, about 3 weeks, vs non-application right side) is “less pigmentation; also recorded: can suppress induction of pigmentation by UVB”. For the same molecule, in the data set with hairless mouse [1] (dihydrocapsiate applied alone, no oral tocopherol acetate, UVB irradiation), the “UVB-induced pigmentation of back skin, visual evaluation, dihydrocapsiate alone” value was “UVB irradiation induced pigmentation in the application site; also recorded: failed to suppress induction of pigmentation”. Besides, the “pigmentation suppressive effect after treatment is ceased” value with hairless mouse [1] (tocopherol acetate administration and dihydrocapsiate application ceased, UVB irradiation continued, dihydrocapsiate application site) is “disappears and induction of pigmentation begins”. Further, the “UVB-induced pigmentation induction, visual evaluation (score 0-5, FIG. 9)” value with hairless mouse [2] is listed as “clearly suppressed”.

Turning to `COc1cc(CNC(=O)CCCC/C=C/C(C)C)ccc1O` [capsaicin, reference compound], the “development of a red spot on auricle, visual evaluation” value in data set [3] (setting [6]) is “presence of a red spot”; in data set [3] (setting [7]), “clear red spot”. Moreover, the “blood circulation promoting action, intensity and sustainability (conclusion)” value in data set [3] is “strong blood circulation promoting action and long sustainability”. Further, in data set [3] (capsaicin, even at 1 wt %, auricle), the “time over which red spot maintained the initial state” value was more than 2 h. Besides, the “dissolution in liquid paraffin” value in data set [4] is recorded as “did not dissolve completely”.

For `COc1cc(COC(=O)CCCC/C=C/C(C)C)ccc1O` [capsiate], in data set [5] (5% capsiate in ethanol applied to auricle, trypan blue i.p., 30-60 minutes after application), the “pigmentation of blue dye in the vicinity of the auricle” value was “pigmentation of a blue dye was observed”. The “skin pigmentation (infiltration) of blue dye at application site” value in data set [5] (100 μl of 5% capsiate in ethanol on back, trypan blue i.p., 30 minutes after application) is “clear skin pigmentation (infiltration) of the blue dye was observed”. In addition, in data set [5] (100 μl of 5% capsiate in ethanol on right side of back vs ethanol alone on left, trypan blue 0.4% 300 μl i.p., 15-20 minutes after application), the “skin pigmentation of blue dye derived from trypan blue at application site” value was “confirmed only on the capsiate application side”. In addition, the results for the “development of a red spot on auricle, visual evaluation” value in data set [3] (setting [6]) and in data set [3] (setting [7]) were “no development of a red spot” and “clear red spot”, respectively. The “blood circulation promoting action, intensity and sustainability (conclusion)” value in data set [3] was “mild sustainability and intensity”. Besides, the “time until developed red spot completely disappeared” value in data set [3] (capsiate in liquid paraffin, auricle) is “about 2 hr”.

Turning to `CC(=O)Oc1c(C)c(C)c2c(c1C)CCC(C)(CCC[C@H](C)CCC[C@H](C)CCCC(C)C)O2` (some centres unmarked) [tocopherol acetate, reference compound], in the data set with hairless mouse [1] (oral tocopherol acetate 200 μl, solvent (50 wt % ethyl alcohol) applied instead of dihydrocapsiate, right vs left side of back), the “UVB-induced pigmentation of back skin, visual evaluation, tocopherol only control” value was “a clear difference was not observed; also recorded: failed to suppress induction of pigmentation”.
